Reference: US20240246918A1, “COMPOUNDS AND COMPOSITIONS AS EIF4E INHIBITORS AND THE USES THEREOF” (Ribometrix, Inc., priority 2022, published 2024)
pIC50: −log10 of the molar value. Read-outs that look alike come from different tables or passages of the source.

What was measured:
[1] = system: COLO 205 colorectal tumor cells; experiment: Tumor cell viability inhibition assay (CellTiter-Glo 2.0, 72 hours); format: cell-based; conditions: COLO 205 cell viability
Method in brief: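 IC50 derived by 4-parameter fitting after normalizing luminescence to DMSO and max-inhibition wells. Compounds tested as 11 concentrations in 4-fold steps on COLO 205 cells seeded at 1500 per well in RPMI-1640/10% FBS; ATP content measured with CellTiter-Glo 2.0 after 72 h.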

human eIF4E protein = biological target: T1, human eIF4E protein (Homo sapiens, UniProt P06730); experiment: Biochemical competitive binding assay (TR-FRET competition, EDA-m7GDP-ATTO-647N probe); conditions: read-out: hEIF4E TR-FRET IC50
T1 construct: purchased Novus NBP-45314
Method in brief: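 IC50 values come from 4-parameter fits of the normalized 665/620 nm TR-FRET ratio. Compound was first incubated 15 min with 4 nM recombinant His-eIF4E bound to 2.5 nM Eu-anti-His antibody, then 15 min with 5 nM m7GDP-ATTO-647N tracer, in pH 7.5 HEPES buffer with 100 mM KCl, Tween-20 and BSA.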

[2] = system: cap-dependent translation in Flp-In-293 reporter cells; experiment: Cellular cap-dependent translation inhibition assay (dual luciferase assay, DLA; Fluc/Rluc ratio, 24 hours); format: cell-based; conditions: dual luciferase assay, Flp-In-293 reporter cells, 24 hours, Fluc/Rluc ratio, read-out: DLA 205 IC50

T1 sequence (P06730 whole entry): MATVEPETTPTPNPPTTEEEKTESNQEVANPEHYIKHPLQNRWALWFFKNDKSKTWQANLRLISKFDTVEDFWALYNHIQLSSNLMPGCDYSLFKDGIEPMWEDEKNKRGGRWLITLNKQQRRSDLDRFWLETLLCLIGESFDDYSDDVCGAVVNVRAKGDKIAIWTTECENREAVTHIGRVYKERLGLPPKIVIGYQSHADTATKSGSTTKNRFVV

| SMILES | pIC50 ([1]; Homo sapiens, COLO 205, 72 h) | pIC50 (human eIF4E protein) | pIC50 [1] | pIC50 ([2]; Homo sapiens, Flp-In-293, 24 h) | pIC50 [2] |
| --- | --- | --- | --- | --- | --- |
| Cc1cc(-c2cc(Cl)ccc2OCCn2c(C)nc3c(c2=O)C[C@H](N2CCC[C@H](F)C2)CC3)c2scc(C(=O)O)c2n1 (single isomer, unassigned) [Compound 283] | > 5.30 | > 7.00 |  | > 6.00 |  |
| Cc1nc2c(c(=O)n1CC#Cc1ccc(Cl)cc1-c1ccnc3c(C(=O)O)csc13)C[C@@H](N1CC[C@H](F)C1)CC2 (single isomer, unassigned) [Compound 293] | > 5.30 | > 7.00 |  | > 6.00 |  |
| Cc1nc2c(c(=O)n1CC#Cc1ccc(Cl)cc1-c1ccnc3c(C(=O)O)csc13)C[C@H](N1CC[C@H](F)C1)CC2 (single isomer, unassigned) [Compound 294] | > 5.30 | > 7.00 |  | > 6.00 |  |
| Cc1nc2c(c(=O)n1CC#Cc1ccc(Cl)cc1-c1ccnc3c(C(=O)NS(C)(=O)=O)csc13)CC(N(C)Cc1ccncc1)CC2 (single isomer, unassigned) [Compound 295] | > 5.30 | > 7.00 |  | > 6.00 |  |
| Cc1nc2c(c(=O)n1CC#Cc1ccc(Cl)cc1-c1ccnc3c(C(=O)O)csc13)CC(N(C)C)CC2 (single isomer, unassigned) [Compound 296] | < 4.70 | 5.30 to 6.30 |  | < 5.30 |  |
| Cc1nc2c(c(=O)n1CC#Cc1ccc(Cl)cc1-c1ccnc3c(C(=O)O)csc13)CC(N(C)C)CC2 (single isomer, unassigned) [Compound 297] |  | 5.30 to 6.30 | < 4.70 |  | < 5.30 |
| Cc1nc2c(c(=O)n1CC#Cc1ccc(Cl)cc1-c1ccnc3c(C(=O)O)csc13)CC(N1CCCCC1)CC2 (single isomer, unassigned) [Compound 298] | > 5.30 | > 7.00 |  | > 6.00 |  |
| Cc1nc2c(c(=O)n1CC#Cc1ccc(Cl)cc1-c1ccnc3c(C(=O)O)csc13)CC(N1CCCCC1)CC2 (single isomer, unassigned) [Compound 299] |  | > 7.00 | 4.70 to 5.30 |  | 5.30 to 6.00 |
| Cc1cc(-c2cc(Cl)ccc2OCCn2c(C)nc3c(c2=O)CC(N(C)C2CCCC2(F)F)CC3)c2scc(C(=O)O)c2n1 (single isomer, unassigned) [Compound 300] | > 5.30 | > 7.00 |  | > 6.00 |  |
| Cc1cc(-c2cc(Cl)ccc2OCCn2c(C)nc3c(c2=O)CC(N(C)C2CCCC2(F)F)CC3)c2scc(C(=O)O)c2n1 (single isomer, unassigned) [Compound 301] |  | > 7.00 | 4.70 to 5.30 |  | > 6.00 |
| Cc1cc(-c2cc(Cl)ccc2OCCn2c(C)nc3c(c2=O)CC(N(C)C2CC2)CC3)c2sccc2n1 (single isomer, unassigned) [Compound 306] | 4.70 to 5.30 | 5.30 to 6.30 |  |  | < 5.30 |
| Cc1cc(-c2cc(Cl)ccc2OCCn2c(C)nc3c(c2=O)CC(N(C)C2CC2)CC3)c2sccc2n1 (single isomer, unassigned) [Compound 307] |  | 6.30 to 7.00 | 4.70 to 5.30 |  | 5.30 to 6.00 |
| Cc1cc(-c2cc(Cl)ccc2OCCn2c(C)nc3c(c2=O)C[C@@H](N2CC[C@H](F)C2)CC3)c2scc(C(=O)O)c2n1 (single isomer, unassigned) [Compound 310] | > 5.30 | > 7.00 |  | > 6.00 |  |
| Cc1cc(-c2cc(Cl)ccc2OCCn2c(C)nc3c(c2=O)C[C@H](N2CC[C@H](F)C2)CC3)c2scc(C(=O)O)c2n1 (single isomer, unassigned) [Compound 311] | > 5.30 | > 7.00 |  | > 6.00 |  |
| Cc1cc(-c2cc(Cl)ccc2OCCn2c(C)nc3c(c2=O)C[C@@H](N2CC[C@@H](F)C2)CC3)c2scc(C(=O)NS(C)(=O)=O)c2n1 (single isomer, unassigned) [Compound 312] | > 5.30 | > 7.00 |  | > 6.00 |  |
| Cc1nc2c(c(=O)n1CC#Cc1ccc(Cl)cc1-c1ccnc3c(C(=O)NS(C)(=O)=O)csc13)CC(N(C)Cc1ccncc1)CC2 (single isomer, unassigned) [Compound 314] |  | > 7.00 | 4.70 to 5.30 |  | 5.30 to 6.00 |
| Cc1nc2c(c(=O)n1CC#Cc1ccc(Cl)cc1-c1ccnc3c(C(=O)NS(C)(=O)=O)csc13)CC(N1CCCCC1)CC2 (single isomer, unassigned) [Compound 315] | > 5.30 | > 7.00 |  | > 6.00 |  |
| Cc1nc2c(c(=O)n1CC#Cc1ccc(Cl)cc1-c1ccnc3c(C(=O)NS(C)(=O)=O)csc13)CC(N1CCCCC1)CC2 (single isomer, unassigned) [Compound 316] |  | > 7.00 | 4.70 to 5.30 |  | 5.30 to 6.00 |
| Cc1cc(-c2cc(Cl)ccc2OCCn2c(C)nc3c(c2=O)CC(N(CC(F)(F)F)C2CC2)CC3)c2scc(C(=O)O)c2n1 (single isomer, unassigned) [Compound 319] | 4.70 to 5.30 | 6.30 to 7.00 |  | 5.30 to 6.00 |  |
| Cc1cc(-c2cc(Cl)ccc2OCCn2c(C)nc3c(c2=O)CC(N(CC(F)(F)F)C2CC2)CC3)c2scc(C(=O)O)c2n1 (single isomer, unassigned) [Compound 320] |  | 6.30 to 7.00 | 4.70 to 5.30 |  | 5.30 to 6.00 |
| Cc1cc(-c2cc(Cl)ccc2OCCn2c(C)nc3c(c2=O)CC(N2CC(C(F)(F)F)C2)CC3)c2scc(C(=O)NS(C)(=O)=O)c2n1 (single isomer, unassigned) [Compound 321] | > 5.30 | > 7.00 |  | > 6.00 |  |

Continued, in another order:

| pIC50 ([1]; Homo sapiens, COLO 205, 72 h) | pIC50 (human eIF4E protein) | pIC50 [1] | SMILES | pIC50 ([2]; Homo sapiens, Flp-In-293, 24 h) | pIC50 [2] |
| --- | --- | --- | --- | --- | --- |
| 4.70 to 5.30 | > 7.00 |  | Cc1cc(-c2cc(Cl)ccc2OCCn2c(C)nc3c(c2=O)CC(N(C)C2CC2)CC3)c2scc(C(=O)NS(=O)(=O)c3ccncc3)c2n1 (single isomer, unassigned) [Compound 284] | 5.30 to 6.00 |  |
|  | > 7.00 | 4.70 to 5.30 | Cc1cc(-c2cc(Cl)ccc2OCCn2c(C)nc3c(c2=O)CC(N(C)C2CC2)CC3)c2scc(C(=O)NS(=O)(=O)c3ccncc3)c2n1 (single isomer, unassigned) [Compound 285] |  | 5.30 to 6.00 |
| > 5.30 | > 7.00 |  | Cc1cc(-c2cc(Cl)ccc2OCCn2c(C)nc3c(c2=O)CC(N(C)C2CC2)CC3)c2scc(C(=O)NS(=O)(=O)c3ccccn3)c2n1 (single isomer, unassigned) [Compound 286] | > 6.00 |  |
|  | > 7.00 | 4.70 to 5.30 | Cc1cc(-c2cc(Cl)ccc2OCCn2c(C)nc3c(c2=O)CC(N(C)C2CC2)CC3)c2scc(C(=O)NS(=O)(=O)c3ccccn3)c2n1 (single isomer, unassigned) [Compound 287] |  | 5.30 to 6.00 |
| 4.70 to 5.30 | > 7.00 |  | Cc1cc(-c2cc(Cl)ccc2OCCn2c(C)nc3c(c2=O)CC(N(C)CC2CCNCC2)CC3)c2scc(C(=O)NS(C)(=O)=O)c2n1 (single isomer, unassigned) [Compound 289] | 5.30 to 6.00 |  |
| > 5.30 | > 7.00 |  | Cc1cc(-c2cc(Cl)ccc2OCCn2c(C)nc3c(c2=O)CC(N(C2CC2)C2CC2)CC3)c2scc(C(=O)NS(C)(=O)=O)c2n1 (single isomer, unassigned) [Compound 291] | > 6.00 |  |
|  | > 7.00 | 4.70 to 5.30 | Cc1cc(-c2cc(Cl)ccc2OCCn2c(C)nc3c(c2=O)CC(N(C2CC2)C2CC2)CC3)c2scc(C(=O)NS(C)(=O)=O)c2n1 (single isomer, unassigned) [Compound 292] |  | 5.30 to 6.00 |
| > 5.30 | > 7.00 |  | Cc1cc(-c2cc(Cl)ccc2OCCn2c(C)nc3c(c2=O)CC(N(C)C2CC2)CC3)c2scc(C(=O)NS(C)(=O)=O)c2n1 (single isomer, unassigned) [Compound 302] | > 6.00 |  |
|  | > 7.00 | > 5.30 | Cc1cc(-c2cc(Cl)ccc2OCCn2c(C)nc3c(c2=O)CC(N(C)C2CC2)CC3)c2scc(C(=O)NS(C)(=O)=O)c2n1 (single isomer, unassigned) [Compound 303] |  | > 6.00 |
| 4.70 to 5.30 | > 7.00 |  | Cc1cc(-c2cc(Cl)ccc2OCCn2c(C)nc3c(c2=O)CC(N(C)CC2(C)COC2)CC3)c2scc(C(=O)NS(C)(=O)=O)c2n1 (single isomer, unassigned) [Compound 304] | > 6.00 |  |
|  | > 7.00 | > 5.30 | Cc1cc(-c2cc(Cl)ccc2OCCn2c(C)nc3c(c2=O)CC(N(C)CC2(C)COC2)CC3)c2scc(C(=O)NS(C)(=O)=O)c2n1 (single isomer, unassigned) [Compound 305] |  | > 6.00 |
| 4.70 to 5.30 | 6.30 to 7.00 |  | Cc1cc(-c2cc(Cl)ccc2OCCn2c(C)nc3c(c2=O)CC(N(CC(F)(F)F)C2CC2)CC3)c2scc(C(=O)NS(C)(=O)=O)c2n1 (single isomer, unassigned) [Compound 308] | 5.30 to 6.00 |  |
|  | 6.30 to 7.00 | 4.70 to 5.30 | Cc1cc(-c2cc(Cl)ccc2OCCn2c(C)nc3c(c2=O)CC(N(CC(F)(F)F)C2CC2)CC3)c2scc(C(=O)NS(C)(=O)=O)c2n1 (single isomer, unassigned) [Compound 309] |  | 5.30 to 6.00 |
| > 5.30 | > 7.00 |  | Cc1cc(-c2cc(Cl)ccc2OCCn2c(C)nc3c(c2=O)C[C@H](N2CC[C@@H](F)C2)CC3)c2scc(C(=O)NS(C)(=O)=O)c2n1 (single isomer, unassigned) [Compound 313] | > 6.00 |  |
